Measured values as given in patent US8450479B2, “3-substituted-4-oxo-3,4-dihydro-imidazo[5,1-d][1,2,3,5-tetrazine-8-carboxylic acid amides and their use” (Pharminox Limited, priority 2007, dated 2013).
Where “and” joins values, the source holds several entries; their conditions need not be identical. Identical values can stand only once. Like-named read-outs stand apart in the source and are kept apart here.

Tests used:
Assay type in all cases: cell-based
[1] = system: range of other cell lines (e.g., colon, melanoma); assay: MTT assay, other cell lines; details: other lines (e.g., colon, melanoma)
From the text: (§1) This assay was first described in Mosmann, T., 1983, “Rapid colorimetric assay for cellular growth and survival: Application to proliferation and cytotoxicity assays”, Journal of Immunological Methods, Vol. 65, Nos. 1-2, pp. 55-63.
(§2) Glioma cell lines, SNB19 and U373, both MGMT transfected (i.e., SNB19M and U373M) and vector controls (i.e., SNB19V and U373V); colorectal carcinoma cell lines, HCT116, HT29, and DLD1; melanoma cell line, SKMEL-28; breast cell line, MCF-7; and normal human fetal lung fibroblast cell line, MRC-5; were harvested at 60-80% confluence—during the logarithmic phase of growth.
(§3) Following harvesting, cells in suspension were gently syringed through a 23 gauge needle to obtain a near-single cell suspension. The desired cell seeding densities were used and added into 96-well plates in 180 μL culture medium if only one test compound was to be added, or 160 μL if two test compounds were to be added in combination, which were allowed to attach at 37° C. (5% CO2) overnight. For the 7 day assay, the cell seeding density for different cell lines was as follows: SNB19V, SNB19M: 650 cells/well; U373V, U373M: 650 cells/well; SNB19VR, U373VR: 650 cells/well; HCT116, DLD-1, SKMEL-28, MRC-5, MCF-7: 400 cells/well.
(§4) The two peripheral lanes were used as blank wells (cell free) and filled with 200 μL of medium in order to minimise medium evaporation from the plate. A separate time zero (T0) plate was set up alongside other plates. Serial dilutions in tissue culture medium of a 100 mM stock of test compound in DMSO were prepared immediately before each assay to ten times the final concentrations required, and then 20 μL was added to each well (200 μL total media per well) to achieve final concentrations of 0.5 μM, 1 μM, 5 μM, 10 μM, 50 μM, 100 μM, 500 μM, and 1000 μM. A minimum of four wells received the same test compound concentration. To control wells, including those in the T0 plate, 20 μL of medium was added. Previous assays had been carried out to verify that cell viability was not affected by the amount of DMSO added into the test compound-treated wells. A separate plate treated in the same way, but free of test compound, was used as a measure of cell viability at the time of drug addition (day 0).
(§5) After incubation at 37° C., 5% CO2 for 7 days (or immediately for the day 0 plate), cell viability was quantified using the MTT assay. 50 μL of sterile filtered MIT (3-(4,5-dimethylthiazol-2-yl)-2,5-diphenyltetrazolium bromide) (2 mg/mL in phosphate buffered saline) were added to each well (final concentration 0.4 mg/mL) and the plates were re-incubated for 4 hours to allow metabolic conversion of MTT by dehydrogenases in viable cells to insoluble formazan crystals. The medium and any unconverted MTT was aspirated, 150 μL of DMSO was added to each well, and the plates were shaken on a plate shaker (Stuart Scientific 503) to ensure complete formazan solubilisation.
(§6) The intensity of absorbance is directly proportional to cell viability. A linear relationship exists between cell number and the amount of formazan and so the mean absorbance determined for each well of the same concentration can be used as a quantitative measure of viable cells compared to the controls. A graph of absorbance against drug concentration was plotted and the test compound concentration (GI50) causing 50% inhibition of control cell growth (absorbance increase from day 0) was calculated by interpolation.

[2] = system: glioma MGMT− and MGMT+ cell lines; assay: MTT assay, glioma lines as a whole; details: glioma MGMT− and MGMT+ cell lines
From the text: as §1, §2, §3, §4, §5, §6

Glioma SNB19V (MGMT−) = assay: MTT assay for 7-day toxicity assay; details: Glioma SNB19V (MGMT−), read-out: GI50
Summary of the method: (§7)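 MGMT-transfected or vector-control glioma cells were seeded at 650 cells/well, attached overnight, and exposed for 7 days at 37 °C to compound at final 0.5–1000 μM. Viability was read by MTT (0.4 mg/mL, 4 h) formazan absorbance, with a day-0 plate included.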

[3] = system: MGMT+ lines SNB 19M and U373M; assay: MTT assay, MGMT+ glioma lines
From the text: as §1, §2, §3
The two peripheral lanes were used as blank wells (cell free) and filled with 200 μL of medium in order to minimise medium evaporation from the plate. A separate time zero (T0) plate was set up alongside other plates. […]
After incubation at 37° C., 5% CO2 for 7 days (or immediately for the day 0 plate), cell viability was quantified using the MTT assay. […]
The intensity of absorbance is directly proportional to cell viability. A linear relationship exists between cell number and the amount of formazan and so the mean absorbance determined for each well of the same concentration can be used as a quantitative measure of viable cells compared to the controls. […]

Glioma U373V (MGMT low) = assay: MTT assay for 7-day toxicity assay; details: for GI50: Glioma U373V (MGMT low), read-out: GI50
Summary of the method: as §7

Glioma SNB19M (MGMT+) = assay: MTT assay for 7-day toxicity assay; details: Glioma SNB19M (MGMT+), read-out: GI50
Summary of the method: as §7

Glioma U373M (MGMT+) = assay: MTT assay for 7-day toxicity assay; details: Glioma U373M (MGMT+), read-out: GI50
Summary of the method: as §7

[4] = system: Colon HT29 (MMR proficient); assay: MTT assay for 7-day toxicity assay; details: Homo sapiens, HT-29, 168 h, Colon HT29 (MMR proficient); 7-day MTT; single determinations; read-out: GI50
Procedure: (§8) The cell culture techniques were carried out in a Class II microbiological safety cabinet which was swabbed with 70% IMS in distilled water before each use. Glioma cells were routinely cultured in Costar tissue culture flasks in RPMI 1640 liquid medium (containing 0.3 g/L L-glutamine and 2 g/L sodium bicarbonate) supplemented with 10% heat inactivated FBS (55-59° C.) for 1 hour to denature complement proteins which would otherwise evoke a cellular immune response resulting in cell lysis, 1% non-essential amino acids, 50 μg/mL gentamicin and 400 μg/mL G418 (vector selected reagent). Colorectal and melanoma cells were maintained in RPMI 1640 supplemented with 10% FBS. MRC-5 cells were cultured in EMEM. Cells were grown in a humidified incubator containing 5% CO2 at 37° C. Cells were sub-cultured when growth exceeded approximately 80% confluence, normally twice weekly. The medium was aspirated from the flask and approximately 0.8 mL trypsin-EDTA 1× solution added. The cells were re-incubated at 37° C. until they visibly detached from the flask. The cell suspension was then re-suspended in 5 mL medium and 0.5-1 mL of the cell suspension was transferred to a new flask (25 cm^2) with 7 mL culture medium. The cells were further incubated at 37° C. incubator. Cells were disposed after passage nearly 30 times in order to minimize phenotypic drift. New batches of cells were taken from liquid nitrogen storage by thawing rapidly (37° C. water bath) and re-suspension in a 25 cm^2 flask with 10 mL of culture medium. Two passages were allowed to resume normal growth. For long-term maintenance, viable cells at 60-80% confluence were detached by minimum amount of trypsin/EDTA and re-suspended in sterile filtered freezing medium (95% FBS, 5% DMSO), transferred to sterile cryogenic vials, and frozen overnight at −20° C. followed by −80° C. for 1-2 days and stored in liquid nitrogen for long term storage.
(§9) Most test compounds, including temozolomide, were prepared as stock solution (100 mM) in DMSO and stored at −20° C. for not more than 6 months.
as §1, §2, §3
(§10) The two peripheral lanes were used as blank wells (cell free) and filled with 200 μL of medium in order to minimise medium evaporation from the plate. A separate time zero (T0) plate was set up alongside other plates. Serial dilutions in tissue culture medium of a 100 mM stock of test compound in DMSO were prepared immediately before each assay to ten times the final concentrations required, and then 20 μL was added to each well (200 μL total media per well) to achieve final concentrations of 0.5 μM, 1 μM, 5 μM, 10 μM, 50 μM, 100 μM, 500 μM, and 1000 μM. A minimum of four wells received the same test compound concentration. […]

[5] = system: Melanoma SKMEL-28 (MMR proficient); assay: MTT assay for 7-day toxicity assay; details: Homo sapiens, SK-MEL-28, 168 h, Melanoma SKMEL-28 (MMR proficient); 7-day MTT; single determinations; read-out: GI50
Procedure: as §8, §9, §1, §2, §3, §10

[6] = system: Breast MCF-7 (MMR proficient); assay: MTT assay for 7-day toxicity assay; details: Homo sapiens, MCF7, 168 h; Breast MCF-7 (MMR proficient); 7-day MTT; single determinations; read-out: GI50
Procedure: as §8, §9, §1, §2, §3, §10

[7] = system: Colon HCT116 (MMR mutated); assay: MTT assay for 7-day toxicity assay; details: Colon HCT116 (MMR mutated), 7-day MTT, single determinations, read-out: GI50
Procedure: as §8, §9, §1, §2, §3, §10

[8] = system: Glioma SNB19VR (MGMT−) (TMZ resistant); assay: MTT assay for 7-day toxicity assay; details: 168 h, Glioma SNB19VR (MGMT−, TMZ resistant); 7-day MTT; single determinations; read-out: GI50
Procedure: as §8, §9, §1, §2, §3, §10

[9] = system: Normal Human Fetal Lung Fibroblast MRC-5; assay: MTT assay for 7-day toxicity assay; details: Homo sapiens, MRC5, 168 h, Normal Human Fetal Lung Fibroblast MRC-5; 7-day MTT; single determinations; read-out: GI50
Procedure: as §8, §9, §1, §2, §3, §10

[10] = system: Glioma U373VR (MGMT low) (TMZ resistant); assay: MTT assay for 7-day toxicity assay; details: 168 h, Glioma U373VR (MGMT low, TMZ resistant); 7-day MTT; single determinations; read-out: GI50
Procedure: as §8, §9, §1, §2, §3, §10

[11] = 168 h, 7-day MTT, single determinations
[12] = 7-day MTT, single determinations

In the case of CS(=O)(=O)CCn1nnc2c(C(N)=O)ncn2c1=O [UU-001, 3-(2-Methanesulfonyl-ethyl)-4-oxo-3,4-dihydro-imidazo[5,1-d][1,2,3,5]tetrazine-8-carboxylic acid amide], the activity in words [1] is reported as “surprising efficacy”, the activity in words [2] is reported as “surprising efficacy” and the GI50 (Glioma SNB19V (MGMT−)) is reported as 92.4 µM and 154 µM.
With NC(=O)c1ncn2c(=O)n(CNC(=O)OCC3c4ccccc4-c4ccccc43)nnc12 [WW-001, (8-Carbamoyl-4-oxo-imidazo[5,1-d][1,2,3,5]tetrazin-3-ylmethyl)-carbamic acid 9H-fluoren-9-ylmethyl ester] the “activity compared with TMZ, in words” value [3] was “more active than TMZ”, the GI50 (Glioma SNB19V (MGMT−)) was 64.8 µM and 67.8 µM and the GI50 (Glioma U373V (MGMT low)) was 35.8 µM and 60.1 µM. The GI50 (Glioma SNB19M (MGMT+)) was 71.2 µM and 56 µM and the GI50 (Glioma U373M (MGMT+)) was 50 µM and 62.5 µM.
For CCC(Cn1nnc2c(C(N)=O)ncn2c1=O)=NOC [XX-001, 3-(2-Methoxyimino-butyl)-4-oxo-3,4-dihydro-imidazo[5,1-d][1,2,3,5]tetrazine-8-carboxylic acid amide], the “activity compared with TMZ, in words” value [3] was “more active than TMZ”, the GI50 (Glioma U373V (MGMT low)) was 18.5 µM and 10.6 µM and the “activity compared with TMZ, in words” value (Glioma U373V (MGMT low); MGMT− glioma cell line U373V) was “enhanced activity”. For the same compound, the GI50 (Glioma SNB19M (MGMT+)) was 47.2 µM and 47.9 µM.
COc1cccc(Cn2nnc3c(C(N)=O)ncn3c2=O)c1 [AA-003, 3-(3-Methoxybenzyl)-4-oxo-3,4-dihydroimidazo[5,1-d][1,2,3, 5]tetrazine-8-carboxamide] gave a GI50 [4] of 345 µM, a GI50 [5] of 422 µM and a GI50 [6] of 316 µM. It also gave a GI50 [7] of 280 µM and a GI50 ([7]; Homo sapiens, HCT-116, 168 h) of 309 µM.
For CSCn1nnc2c(C(N)=O)ncn2c1=O [KK-001, 3-(Methylthio)methyl-8-carbamoylimidazotetrazin-4-one], the “activity compared with TMZ, in words” value [3] was “more active than TMZ”, the GI50 (Glioma SNB19V (MGMT−); [11]) was 118 µM and the GI50 (Glioma SNB19V (MGMT−); [12]) was 96.5 µM. For the same compound, the GI50 (Glioma U373V (MGMT low); [11]) was 45 µM, the GI50 (Glioma U373V (MGMT low); [12]) was 73.4 µM and the GI50 (Glioma U373M (MGMT+); [11]) was 59 µM. For the same compound, the GI50 (Glioma U373M (MGMT+); [12]) was 54 µM.
For CS(=O)(=O)Cn1nnc2c(C(N)=O)ncn2c1=O [UU-002, 3-Methanesulfonylmethyl-4-oxo-3,4-dihydro-imidazo[5,1-d][1,2,3,5]tetrazine-8-carboxylic acid amide], the activity in words [1] was “surprising efficacy”, the activity in words [2] was “surprising efficacy” and the GI50 (Glioma SNB19M (MGMT+)) was 14.5 µM and 13.7 µM and 26.6 µM.
CC[C@@H](c1ccccc1)n1nnc2c(C(N)=O)ncn2c1=O [BB-004, (S)-3-(-1-Phenylpropyl)-8-carbamoylimidazotetrazin-4-one] was tested, and the GI50 (Glioma SNB19V (MGMT−); [11]) was 52.4 µM, the GI50 (Glioma SNB19V (MGMT−); [12]) was 65.8 µM and the GI50 (Glioma U373V (MGMT low); [11]) was 84.3 µM. For the same compound, the GI50 (Glioma U373V (MGMT low); [12]) was 72.8 µM, the GI50 (Glioma SNB19M (MGMT+); [11]) was 48.4 µM and the GI50 (Glioma SNB19M (MGMT+); [12]) was 60 µM. It also gave a GI50 (Glioma U373M (MGMT+); [11]) of 63.1 µM, a GI50 (Glioma U373M (MGMT+); [12]) of 99.4 µM and a GI50 [8] of 29.1 µM. For the same compound, the GI50 [9] was 189 µM and the GI50 [10] was 35.8 µM.
